Source: the supplement of paper PMC10307832

What was measured:
Assay in all cases: relative viability (nuclei count vs DMSO), 5 days (fraction); higher = more cells survive
NCI-H2228 = test system: NCI-H2228
How it was run: (§1)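 Cells from lung cancer lines were seeded into 1536-well plates and, one day later, dosed by pin tool. Treatments were either a single drug or a fixed dose of an anchor drug with five library-drug doses (not always all listed) in √10 steps. After 5 days, nuclei were stained in a one-step fixation (final 0.05% Triton X-100, 1% formaldehyde, 1 ug/ml Hoechst) and counted on 4× images, and relative viability is the treated-to-vehicle nuclei ratio, as the median of duplicate plates.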

EMC-BAC-2 = test system: EMC-BAC-2
How it was run: as §1

NCI-H1944 = test system: NCI-H1944
How it was run: as §1

A-427 = test system: A-427
How it was run: as §1

NCI-H2170 = test system: NCI-H2170
How it was run: as §1

NCI-H2009 = test system: NCI-H2009
How it was run: as §1

PC-3 [JPC-3] = test system: PC-3 [JPC-3]
How it was run: as §1

NCI-H596 = test system: NCI-H596
How it was run: as §1

HOP-62 = test system: HOP-62
How it was run: as §1

NCI-H1792 = test system: NCI-H1792
How it was run: as §1

LK-2 = test system: LK-2
How it was run: as §1

HARA = test system: HARA
How it was run: as §1

LXF-289 = test system: LXF-289
How it was run: as §1

NCI-H322M = test system: NCI-H322M
How it was run: as §1

NCI-H3122 = test system: NCI-H3122
How it was run: as §1

ABC-1 = test system: ABC-1
How it was run: as §1

SK-MES-1 = test system: SK-MES-1
How it was run: as §1

NCI-H727 = test system: NCI-H727
How it was run: as §1

NCI-H1993 = test system: NCI-H1993
How it was run: as §1

SW 1573 = test system: SW 1573
How it was run: as §1

O=c1cc(N2CCOCC2)oc2c(-c3cccc4c3sc3ccccc34)cccc12 + Cc1nc(NC(=O)N2CCC[C@H]2C(N)=O)sc1-c1ccnc(C(C)(C)C(F)(F)F)c1 [Alpelisib] (partner 2 µM)
relative viability (NCI-H2228; first compound 0.03162 µM): 0.928 | relative viability (NCI-H2228; first compound 0.1 µM): 0.713 | relative viability (NCI-H2228; first compound 0.3162 µM): 0.877 | relative viability (NCI-H2228; first compound 1 µM): 0.481 | relative viability (EMC-BAC-2; first compound 0.01 µM): 0.726 | relative viability (EMC-BAC-2; first compound 0.03162 µM): 0.781 | relative viability (EMC-BAC-2; first compound 0.1 µM): 0.813 | relative viability (EMC-BAC-2; first compound 0.3162 µM): 0.759 | relative viability (EMC-BAC-2; first compound 1 µM): 0.722 | relative viability (NCI-H1944; first compound 0.01 µM): 0.814 | relative viability (NCI-H1944; first compound 0.03162 µM): 0.833 | relative viability (NCI-H1944; first compound 0.1 µM): 0.82 | relative viability (NCI-H1944; first compound 0.3162 µM): 0.847 | relative viability (NCI-H1944; first compound 1 µM): 0.801 | relative viability (A-427; first compound 0.01 µM): 1.11 | relative viability (A-427; first compound 0.03162 µM): 1.12 | relative viability (A-427; first compound 0.1 µM): 1.03 | relative viability (A-427; first compound 0.3162 µM): 1.04 | relative viability (A-427; first compound 1 µM): 1.09 | relative viability (NCI-H2170; first compound 0.01 µM): 0.83 | relative viability (NCI-H2170; first compound 0.03162 µM): 0.782 | relative viability (NCI-H2170; first compound 0.1 µM): 0.837 | relative viability (NCI-H2170; first compound 0.3162 µM): 0.817 | relative viability (NCI-H2170; first compound 1 µM): 0.735 | relative viability (NCI-H2009; first compound 0.01 µM): 1.12 | relative viability (NCI-H2009; first compound 0.03162 µM): 1.14 | relative viability (NCI-H2009; first compound 0.1 µM): 1.18 | relative viability (NCI-H2009; first compound 0.3162 µM): 1.15 | relative viability (NCI-H2009; first compound 1 µM): 1.13 | relative viability (PC-3 [JPC-3]; first compound 0.01 µM): 1.01 | relative viability (PC-3 [JPC-3]; first compound 0.03162 µM): 1.05 | relative viability (PC-3 [JPC-3]; first compound 0.1 µM): 1.02 | relative viability (PC-3 [JPC-3]; first compound 0.3162 µM): 1.02 | relative viability (PC-3 [JPC-3]; first compound 1 µM): 1.04 | relative viability (NCI-H596; first compound 0.01 µM): 0.469 | relative viability (NCI-H596; first compound 0.03162 µM): 0.506 | relative viability (NCI-H596; first compound 0.1 µM): 0.451 | relative viability (NCI-H596; first compound 0.3162 µM): 0.474 | relative viability (NCI-H596; first compound 1 µM): 0.522 | relative viability (HOP-62; first compound 0.01 µM): 1.08 | relative viability (HOP-62; first compound 0.03162 µM): 0.958 | relative viability (HOP-62; first compound 0.1 µM): 1.24 | relative viability (HOP-62; first compound 0.3162 µM): 1.19 | relative viability (HOP-62; first compound 1 µM): 1.1 | relative viability (NCI-H1792; first compound 0.01 µM): 0.677 | relative viability (NCI-H1792; first compound 0.03162 µM): 0.628 | relative viability (NCI-H1792; first compound 0.1 µM): 0.709 | relative viability (NCI-H1792; first compound 0.3162 µM): 0.672 | relative viability (NCI-H1792; first compound 1 µM): 0.674 | relative viability (LK-2; first compound 0.01 µM): 1.1 | relative viability (LK-2; first compound 0.03162 µM): 1.01 | relative viability (LK-2; first compound 0.1 µM): 1.14 | relative viability (LK-2; first compound 0.3162 µM): 1.03 | relative viability (LK-2; first compound 1 µM): 1.25 | relative viability (HARA; first compound 0.01 µM): 0.854 | relative viability (HARA; first compound 0.03162 µM): 0.789 | relative viability (HARA; first compound 0.1 µM): 0.88 | relative viability (HARA; first compound 0.3162 µM): 0.809 | relative viability (HARA; first compound 1 µM): 0.845 | relative viability (LXF-289; first compound 0.01 µM): 1.05 | relative viability (LXF-289; first compound 0.03162 µM): 1.03 | relative viability (LXF-289; first compound 0.1 µM): 1.05 | relative viability (LXF-289; first compound 0.3162 µM): 1 | relative viability (LXF-289; first compound 1 µM): 1.02 | relative viability (NCI-H322M; first compound 0.01 µM): 0.804 | relative viability (NCI-H322M; first compound 0.03162 µM): 0.721 | relative viability (NCI-H322M; first compound 0.3162 µM): 0.82 | relative viability (NCI-H322M; first compound 1 µM): 0.813 | relative viability (NCI-H3122; first compound 0.01 µM): 0.868 | relative viability (NCI-H3122; first compound 0.03162 µM): 0.729 | relative viability (NCI-H3122; first compound 0.1 µM): 0.839 | relative viability (NCI-H3122; first compound 0.3162 µM): 0.756 | relative viability (NCI-H3122; first compound 1 µM): 0.713 | relative viability (ABC-1; first compound 0.01 µM): 1.11 | relative viability (ABC-1; first compound 0.03162 µM): 0.939 | relative viability (ABC-1; first compound 0.1 µM): 1.01 | relative viability (ABC-1; first compound 0.3162 µM): 0.883 | relative viability (ABC-1; first compound 1 µM): 0.857 | relative viability (SK-MES-1; first compound 0.01 µM): 0.842 | relative viability (SK-MES-1; first compound 0.03162 µM): 0.839 | relative viability (SK-MES-1; first compound 0.1 µM): 0.867 | relative viability (SK-MES-1; first compound 0.3162 µM): 0.935 | relative viability (SK-MES-1; first compound 1 µM): 0.937 | relative viability (NCI-H727; first compound 0.01 µM): 0.481 | relative viability (NCI-H727; first compound 0.03162 µM): 0.591 | relative viability (NCI-H727; first compound 0.1 µM): 0.493 | relative viability (NCI-H727; first compound 0.3162 µM): 0.538 | relative viability (NCI-H727; first compound 1 µM): 0.541 | relative viability (NCI-H1993; first compound 0.01 µM): 0.658 | relative viability (NCI-H1993; first compound 0.03162 µM): 0.741 | relative viability (NCI-H1993; first compound 0.1 µM): 0.797 | relative viability (NCI-H1993; first compound 0.3162 µM): 0.791 | relative viability (NCI-H1993; first compound 1 µM): 0.722 | relative viability (SW 1573; first compound 0.01 µM): 1.13 | relative viability (SW 1573; first compound 0.03162 µM): 0.736 | relative viability (SW 1573; first compound 0.1 µM): 0.868 | relative viability (SW 1573; first compound 0.3162 µM): 0.735 | relative viability (SW 1573; first compound 1 µM): 0.733
